Drawing on patent US12071424B2, “IRE1 small molecule inhibitors” (Cornell University, priority 2017, dated 2024), this text covers viability, IC50 and EC50 for 15 compounds.

The test system of one assay is 293T cells. The experiment in a line: Growth assay (cytotoxicity). The format is cell-based, human. The note with it: Homo sapiens, HEK-293T, Formic Acid Salt (37: HCl Salt). Here is the method:
A growth assay was performed to evaluate the compounds disclosed herein for cytotoxicity. Briefly, 5,000,000 293T cells were resuspended in 18 mL of cDMEM for a final concentration of […]. […] In a separate 96 well dilution plate, 199 uL cDMEM and 1 uL of DMSO or any one of the compounds disclosed herein (shown as Test Compound 1, 2, 3, 4, 5, or 6 below) were added to wells A4, A8, C4, C8, E4, E8, G4, and G8, 133.3 uL cDMEM was added to wells 1, 2, 3, 5, 6, and 7 in rows A, C, E and G of the dilution plate. Compounds were serially diluted leftwards in threefold dilutions (66.7 uL into 133.3 uL cDMEM). 20 uL of each dilution was transferred in duplicate (duplicates in vertical paired wells) to the cells plated in the 96-well plate shown in Table 5, to the total concentrations shown below. 200 uL cDMEM was addled to media wells (wells G5-H8). The plate was then placed in a humidified chamber for a […], and then photographed (media was more yellow in wells with potent cell growth). Absorbance was then measured at ˜[…] (lower for more acidic media) and ˜450 nM (higher for more acidic media).

For assay [1], the target named is T1, IRE1a (Homo sapiens, UniProt O75460).
T1 construct: purchased SignalChem
T1 sequence (O75460 19-977): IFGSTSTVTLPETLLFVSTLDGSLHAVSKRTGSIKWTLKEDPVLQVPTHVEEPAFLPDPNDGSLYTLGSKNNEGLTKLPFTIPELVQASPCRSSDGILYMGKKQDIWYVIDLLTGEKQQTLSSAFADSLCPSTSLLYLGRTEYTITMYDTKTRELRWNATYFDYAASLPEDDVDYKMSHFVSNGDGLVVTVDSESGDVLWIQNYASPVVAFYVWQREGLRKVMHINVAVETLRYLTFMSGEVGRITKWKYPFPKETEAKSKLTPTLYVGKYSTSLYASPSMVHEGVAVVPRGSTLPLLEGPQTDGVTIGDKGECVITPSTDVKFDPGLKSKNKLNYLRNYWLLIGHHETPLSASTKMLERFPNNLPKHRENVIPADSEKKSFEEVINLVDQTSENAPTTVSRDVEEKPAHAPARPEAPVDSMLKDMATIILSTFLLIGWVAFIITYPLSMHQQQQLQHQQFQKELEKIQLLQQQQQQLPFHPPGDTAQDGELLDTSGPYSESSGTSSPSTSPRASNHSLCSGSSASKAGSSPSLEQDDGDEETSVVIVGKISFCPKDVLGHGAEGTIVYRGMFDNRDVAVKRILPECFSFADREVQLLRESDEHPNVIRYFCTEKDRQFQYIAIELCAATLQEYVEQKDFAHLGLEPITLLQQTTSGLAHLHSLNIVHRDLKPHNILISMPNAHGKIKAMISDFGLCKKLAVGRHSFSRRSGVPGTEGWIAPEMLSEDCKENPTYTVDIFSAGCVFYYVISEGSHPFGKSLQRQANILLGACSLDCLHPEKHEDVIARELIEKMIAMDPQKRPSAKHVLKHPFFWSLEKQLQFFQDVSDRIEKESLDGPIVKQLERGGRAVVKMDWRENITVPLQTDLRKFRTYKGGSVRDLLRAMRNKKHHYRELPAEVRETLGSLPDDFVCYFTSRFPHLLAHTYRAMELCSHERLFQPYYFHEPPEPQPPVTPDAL
As to the kind of experiment: In vitro FRET assay (IRE1a cleavage of XBP1 RNA probe). The format is biochemical. The note with it: 2 nM SignalChem IRE1a, tested as Formic Acid Salt (37: HCl Salt). The essentials:
Human

The test system of assay [2] is IRE1a. As to the kind of experiment: IRE1a Endoribonuclease Nanoluciferase Assay (XBP1 luciferase reporter in 293T cells). The note with it: Homo sapiens, HEK-293T, ER stressor, tested as Formic Acid Salt (37: HCl Salt). The assay is classed as cell-based, human. The essentials:
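293T cells transiently transfected with a PGK-Luc2-P2A-XBP1u-Nanoluciferase-Pest reporter, replated after 6 h, then treated next day with ER stressors ± inhibitors. After lysis, firefly luminescence then nanoluciferase luminescence read sequentially (1000 ms integration each).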

For `CCc1cc(-c2cnc(NS(=O)(=O)c3ccccc3Cl)nc2C)cc2cnc(N[C@H]3CC[C@H](N)CC3)nc12` [Compound 23], in the assay with 293T cells, the viability at 0.185 µM is 75 to 100%, the viability at 0.5556 µM was 50 to 75%, the viability at 1.667 µM was 50 to 75% and the viability at 5 µM fell in the range of 75 to 100%. For the same compound, at IRE1a [1], the half-maximal inhibitory concentration (IC50) is no more than 5 nM. For the same compound, in the assay with IRE1a [2], the EC50 is no more than 5 nM.

For `CCc1cc(-c2cnc(NS(=O)(=O)c3ccccc3Cl)cn2)cc2cnc(N[C@H]3CC[C@H](N)CC3)nc12` [Compound 25, N-(S-(2-(((1r,4r)-4-aminocyclohexyl)amino)-8-ethylquinazolin-6-yl)pyrazin-2-yl)-2-chlorobenzene-sulfonamide], in the assay with 293T cells, the viability at 0.185 µM fell in the range of 75 to 100%, the viability at 0.5556 µM was in the range of 75 to 100%, the viability at 1.667 µM fell in the range of 75 to 100% and the viability at 5 µM was 75 to 100%. Besides, the IC50 on IRE1a [1] is no more than 5 nM. Further, in the assay on IRE1a [2], the EC50 was no more than 5 nM.

Regarding `CCc1cc(-c2ccc(NS(=O)(=O)c3ccccc3Cl)nc2)cc2cnc(N[C@H]3CC[C@H](N)CC3)nc12` [Compound 27, N-(5-(2-(((1r,4)-4-aminocyclohexyl)amino)-8-ethylquinazolin-6-yl)pyridin-2-yl)-2-chlorobenzene-sulfonamide], in the assay with 293T cells, the viability at 0.185 µM was in the range of 75 to 100%, the viability at 0.5556 µM lay within 75 to 100%, the viability at 1.667 µM was in the range of 50 to 75% and the viability at 5 µM was in the range of 25 to 50%. The IC50 at IRE1a [1] was no more than 5 nM. Also, the EC50 with IRE1a [2] was no more than 5 nM.

As for `CCc1cc(-c2ccc(NS(=O)(=O)c3ccccc3Cl)cn2)cc2cnc(N[C@H]3CC[C@H](N)CC3)nc12` [Compound 28], in the assay with 293T cells, the viability at 0.185 µM is 75 to 100%, the viability at 0.5556 µM was in the range of 75 to 100%, the viability at 1.667 µM was in the range of 50 to 75% and the viability at 5 µM was 25 to 50%. Besides, on IRE1a [1], the IC50 is no more than 5 nM. In the assay on IRE1a [2], the EC50 was no more than 5 nM.

With `CCc1cc(-c2cc(NS(=O)(=O)c3ccccc3Cl)n[nH]2)cc2cnc(N[C@H]3CC[C@H](N)CC3)nc12` [Compound 29, N-(5-(2-(((1r,4r)-4-aminocyclohexyl)amino)-8-ethylquinazolin-6-yl)-1H-pyrazol-3-yl)-2-chlorobenzene-sulfonamide], in the assay on 293T cells, the viability at 0.185 µM lay in the range of 75 to 100%, the viability at 0.5556 µM fell in the range of 75 to 100%, the viability at 1.667 µM was in the range of 75 to 100% and the viability at 5 µM fell in the range of 75 to 100%. At IRE1a [1], the IC50 was no more than 5 nM. In addition, the 50% effective concentration (EC50) in the assay with IRE1a [2] lay within 100 to 10000 nM.

With `CCc1cc(-c2ccc(NS(=O)(=O)c3ccccc3Cl)nn2)cc2cnc(N[C@H]3CC[C@H](N)CC3)nc12` [Compound 32, N-(6-(2-(((1r,4r)-4-aminocyclohexyl)amino)-8-ethylquinazolin-6-yl)pyridazin-3-yl)-2-chlorobenzene-sulfonamide], in the assay with 293T cells, the viability at 0.185 µM was 75 to 100%, the viability at 0.5556 µM fell in the range of 75 to 100%, the viability at 1.667 µM is 50 to 75% and the viability at 5 µM lay within 25 to 50%. For the same compound, the IC50 on IRE1a [1] was no more than 5 nM. The EC50 in the assay with IRE1a [2] was no more than 5 nM.

Regarding `CCc1cc(-c2ncc(NS(=O)(=O)c3ccccc3Cl)cn2)cc2cnc(N[C@H]3CC[C@H](N)CC3)nc12` [Compound 33], in the assay on 293T cells, the viability at 0.185 µM fell in the range of 75 to 100%, the viability at 0.5556 µM lay within 75 to 100%, the viability at 1.667 µM fell in the range of 75 to 100% and the viability at 5 µM was in the range of 50 to 75%. The IC50 on IRE1a [1] is no more than 5 nM. In addition, the half-maximal effective concentration (EC50) with IRE1a [2] was no more than 5 nM.

Take `CCc1cc(NS(=O)(=O)c2ccccc2Cl)ccc1-c1cc(CC)c2nc(N[C@H]3CC[C@H](N)CC3)ncc2c1` [Compound 34, N-(4-(2-(((1r,4r)-4-aminocyclohexyl)amino)-8-ethylquinazolin-6-yl)-3-ethylphenyl)-2-chlorobenzene-sulfonamide]: in the assay on 293T cells, the viability at 0.185 µM is 75 to 100%, the viability at 0.5556 µM lay within 75 to 100%, the viability at 1.667 µM was in the range of 75 to 100% and the viability at 5 µM was no more than 25%. Further, on IRE1a [1], the IC50 was no more than 5 nM. In the assay with IRE1a [2], the 50% effective concentration (EC50) is 5 to 50 nM.

On to `CCc1cc(-c2ccc(NS(=O)(=O)c3ccccc3Cl)cc2F)cc2cnc(N[C@H]3CC[C@H](N)CC3)nc12` [Compound 35, N-(4-(2-(((1r,4r)-4-aminocyclohexyl)amino)-8-ethylquinazolin-6-yl)-3-fluorophenyl)-2-chlorobenzene-sulfonamide], for which, in the assay with 293T cells, the viability at 0.185 µM was 75 to 100%, the viability at 0.5556 µM was in the range of 75 to 100%, the viability at 1.667 µM lay in the range of 50 to 75% and the viability at 5 µM was in the range of 25 to 50%. Further, the IC50 on IRE1a [1] was no more than 5 nM. Also, in the assay with IRE1a [2], the EC50 was no more than 5 nM.

With `CCc1cc(-c2cnc(NS(=O)(=O)c3ccccc3Cl)nc2OC)cc2cnc(N[C@H]3CC[C@H](N)CC3)nc12` [Compound 46, N-(5-(2-(((1r,4r)-4-aminocyclohexyl)amino)-8-ethylquinazolin-6-yl)-4-methoxypyrimidin-2-yl)-2-chlorobenzene-sulfonamide], in the assay on 293T cells, the viability at 0.185 µM was 75 to 100%, the viability at 0.5556 µM was in the range of 75 to 100%, the viability at 1.667 µM fell in the range of 75 to 100% and the viability at 5 µM was in the range of 75 to 100%. At IRE1a [1], the IC50 was no more than 5 nM. The EC50 in the assay on IRE1a [2] is no more than 5 nM.

Regarding `CCc1cc(-c2nnc(NS(=O)(=O)c3ccccc3Cl)cc2OC)cc2cnc(N[C@H]3CC[C@H](N(C)C)CC3)nc12` [Compound 159, 2-chloro-N-(6-(2-(((1r,4r)-4-(dimethylamino)cyclohexyl)amino)-8-ethylquinazolin-6-yl)-5-methoxypyridazin-3-yl)benzenesulfonamide], the IC50 on IRE1a [1] was no more than 5 nM. In addition, the EC50 in the assay with IRE1a [2] lay in the range of 5 to 50 nM.

As for `CCc1cc(-c2ccc(NS(=O)(=O)c3cccc(C)c3Cl)nc2C)cc2cnc(N[C@H]3CC[C@H](N(C)C)CC3)nc12` [Compound 160, 2-chloro-N-(5-(2-(((1r,4r)-4-(dimethylamino)cyclohexyl)amino)-8-ethylquinazolin-6-yl)-6-methylpyridin-2-yl)-3-methylbenzenesulfonamide], at IRE1a [1], the IC50 was no more than 5 nM. In addition, in the assay with IRE1a [2], the concentration giving a half-maximal response (EC50) is no more than 5 nM.

On to `CCc1c(F)c(-c2ccc(NS(=O)(=O)c3ccccc3Cl)nc2C)cc2cnc(N[C@H]3CC[C@H](N(C)C)CC3)nc12` [Compound 161, 2-chloro-N-(5-(2-(((1r,4r)-4-(dimethylamino)cyclohexyl)amino)-8-ethyl-7-fluoroquinazolin-6-yl)-6-methylpyridin-2-yl)benzenesulfonamide], for which, on IRE1a [1], the 50% inhibitory concentration (IC50) was no more than 5 nM. Moreover, the concentration for a half-maximal effect (EC50) with IRE1a [2] is no more than 5 nM.

Consider `CCc1c(F)c(-c2cc(F)c(NS(=O)(=O)c3ccccc3Cl)nc2C)cc2cnc(N[C@H]3CC[C@H](N(C)C)CC3)nc12` [Compound 162, 2-chloro-N-(5-(2-(((1r,4r)-4-(dimethylamino)cyclohexyl)amino)-8-ethyl-7-fluoroquinazolin-6-yl)-3-fluoro-6-methylpyridin-2-yl)benzenesulfonamide], for which the concentration for half-maximal inhibition (IC50) on IRE1a [1] was no more than 5 nM. The 50% effective concentration (EC50) in the assay on IRE1a [2] is no more than 5 nM.

As to `CCc1c(F)c(-c2cc(F)c(NS(=O)(=O)c3ccccc3Cl)nc2OC)cc2cnc(N[C@H]3CC[C@H](N(C)C)CC3)nc12` [Compound 163, 2-chloro-N-(5-(2-(((1r,4r)-4-(dimethylamino)cyclohexyl)amino)-8-ethyl-7-fluoroquinazolin-6-yl)-3-fluoro-6-methoxypyridin-2-yl)benzenesulfonamide], at IRE1a [1], the 50% inhibitory concentration (IC50) is no more than 5 nM. In the assay with IRE1a [2], the 50% effective concentration (EC50) is no more than 5 nM.
